Columns and labels:
[1] = log P determination by HPLC, reversed-phase column (EEC Directive 79/831 Annex V.A8); assay type: physicochemical; details: reversed-phase C 18, 43° C., acidic range: 0.1% aqueous phosphoric acid, acetonitrile, gradient 10% to 90% (data labelled a))
Description: The log P values given in Table 1 were determined in accordance with the EEC Directive 79/831 Annex V.A8 by HPLC (High Performance Liquid Chromatography) using a reversed-phase column (C 18). Temperature: 43° C. (a) Mobile phases for the determination in the acidic range: 0.1% aqueous phosphoric acid, acetonitrile; linear gradient from 10% acetonitrile to 90% acetonitrile—the corresponding data are labelled a) in Table 1. (b) Mobile phases for the determination in the neutral range: 0.01 molar aqueous phosphate buffer solution, acetonitrile; linear gradient from 10% acetonitrile to 90% acetonitrile—the corresponding data are labelled b) in Table 1. The calibration was carried out using unbranched alkan-2-ones (having from 3 to 16 carbon atoms) whose log P values are known (determination of the log P values by the retention times by linear interpolation between two successive alkanones).

[2] = tested on: crop plants, such as, for example, barley, wheat, maize and soya; test: Pre-emergence test (Example A), compatibility with crop plants; assay type: in vivo; details: rated after three weeks
Description: (§1) Pre-emergence Test Solvent: 5 parts by weight of acetone Emulsifier: 1 part by weight of alkylaryl polyglycol ether To produce a suitable preparation of active compound, 1 part by weight of active compound is mixed with the stated amount of solvent, the stated amount of emulsifier is added and the concentrate is diluted with water to the desired concentration. Seeds of the test plants are sown in normal soil. After approximately 24 hours, the soil is sprayed with the preparation of the active compound in such a way as to apply the particular amount of active compound desired per unit area. The concentration of the spray liquor is chosen so that the amount of active compound desired in each case is applied in 1000 liter of water per hectare. After three weeks, the degree of damage to the plants is rated in % damage in comparison with the development of the untreated control. The figures denote: [table]

weeds [3] = test: Post-emergence test (Example B), activity against weeds; assay type: in vivo; details: test plants 5-15 cm sprayed, rated after three weeks
Description: Post-emergence Test Solvent: 5 parts by weight of acetone Emulsifier: 1 part by weight of alkylaryl polyglycol ether To produce a suitable preparation of active compound, 1 part by weight of active compound is mixed with the stated amount of solvent, the stated amount of emulsifier is added and the concentrate is diluted with water to the desired concentration. Test plants which have a height of 5-15 cm are sprayed with the preparation of the active compound in such a way as to apply the particular amounts of active compound desired per unit area. The concentration of the spray liquor is chosen so that the amounts of active compound desired in each case are applied in 1000 l of water/ha. After three weeks, the degree of damage to the plants is rated in % damage in comparison with the development of the untreated control. The figures denote: 0%=no effect (like untreated control) 100%=total destruction

weeds [4] = test: Pre-emergence test (Example A), activity against weeds; assay type: in vivo; details: soil sprayed about 24 hours after sowing, rated after three weeks
Description: as §1

Row | Structure (SMILES) | log P [1] | also measured
1 | Cn1nc(-c2cc(Oc3ccc(C(F)(F)F)cc3)c(C#N)cc2F)c(Cl)c1OC(F)F [Example 52] | logP: 4.59^a) | 
2 | Cn1nc(-c2cc(Oc3cccc(OC(F)(F)F)c3)c(C#N)cc2F)c(Cl)c1OC(F)F [Example 123] | logP: 4.72^a) | 
3 | Cn1nc(-c2cc(Oc3ccc(Cl)c(Cl)c3)c(C#N)cc2F)c(Cl)c1OC(F)F [Example 118] | logP: 4.89^a) | 
4 | CN(C)c1cccc(Oc2cc(-c3nn(C)c(OC(F)F)c3Cl)c(F)cc2C#N)c1 [Example 116] | logP: 4.38^a) | 
5 | CCN(CC)c1cccc(Oc2cc(-c3nn(C)c(OC(F)F)c3Cl)c(F)cc2C#N)c1 [Example 122] | logP: 4.40^a) | 
6 | Cn1nc(-c2cc(Oc3ccc(OC(F)(F)F)cc3)c(C#N)cc2F)c(Cl)c1OC(F)F [Example 76] | logP: 4.70^a) | 
7 | Cc1ccc(Oc2cc(-c3nn(C)c(OC(F)F)c3Cl)c(F)cc2C#N)cc1 [Example 58] | logP: 4.45^a) | 
8 | CC(=O)c1ccc(Oc2cc(-c3nn(C)c(OC(F)F)c3Cl)c(F)cc2C#N)cc1 [Example 84] | logP: 3.66^a) | 
9 | Cn1nc(-c2cc(Oc3ccc(Cl)cc3)c(C#N)cc2F)c(Cl)c1OC(F)F [Example 69] | logP: 4.49^a) | 
10 | Cn1nc(-c2cc(Oc3cccc(C(F)(F)F)c3)c(C#N)cc2F)c(Cl)c1OC(F)F [Example 51] | logP: 4.55^a) | 
11 | CCOC(=O)C(C)Oc1ccc(Oc2cc(-c3nn(C)c(OC(F)F)c3Br)c(F)cc2C#N)cc1 (stereo not shown) [Example 1, ethyl 2-[4-[2-cyano-5-[4-bromo-5-(difluoromethoxy)-1-methyl-1H-pyrazo-3-yl]-4-fluoro-phenoxy]-phenoxy]-propionate] |  | compatibility with crop plants [2]: good compatibility with crop plants; melting point: 60 °C; activity against weeds (degree of damage) (weeds [3]): strong activity against weeds; activity against weeds (degree of damage) (weeds [4]): strong activity against weeds
12 | Cn1nc(-c2cc(Oc3cccc(F)c3)c(C#N)cc2F)c(Cl)c1OC(F)F [Example 71] | logP: 4.17^a) | 
13 | CN(C)C(=O)c1ccccc1Oc1cc(-c2nn(C)c(OC(F)F)c2Cl)c(F)cc1C#N [Example 115] | logP: 3.20^a) | 
14 | Cn1nc(-c2cc(Oc3ccc(F)cc3)c(C#N)cc2F)c(Cl)c1OC(F)F [Example 72] | logP: 4.13^a) | 
15 | Cn1nc(-c2cc(Oc3ccccc3)c(C#N)cc2F)c(Cl)c1C(F)(F)F [Example 2, 4-chloro-3-(4-cyano-2-fluoro-5-phenoxyphenyl)-1-methyl-5-trifluoromethyl-1H-pyrazole] |  | melting point: 123 °C
16 | Cn1nc(-c2cc(Oc3cccc(Cl)c3)c(C#N)cc2F)c(Cl)c1OC(F)F [Example 68] | logP: 4.49^a) | 

Now from value to molecule, other results behind:

Row | log P [1] | Structure (SMILES) | also measured
17 | logP: 3.98^a) | COc1ccccc1Oc1cc(-c2nn(C)c(OC(F)F)c2Cl)c(F)cc1C#N [Example 59] | 
18 | logP: 3.80^a) | COc1cccc(Oc2cc(-c3nn(C)c(OC(F)F)c3Br)c(F)cc2C#N)c1OC [Example 112] | 
19 | logP: 4.40^a) | Cc1ccccc1Oc1cc(-c2nn(C)c(OC(F)F)c2Cl)c(F)cc1C#N [Example 56] | 
20 | logP: 4.13^a) | COc1cccc(Oc2cc(-c3nn(C)c(OC(F)F)c3Cl)c(F)cc2C#N)c1 [Example 60] | 
21 | logP: 3.72^a) | COc1ccc(Oc2cc(-c3nn(C)c(OC(F)F)c3Cl)c(F)cc2C#N)cc1OC [Example 126] | 
22 | logP: 4.43^a) | Cc1cccc(Oc2cc(-c3nn(C)c(OC(F)F)c3Cl)c(F)cc2C#N)c1 [Example 57] | 
23 | logP: 4.05^a) | COc1ccc(Oc2cc(-c3nn(C)c(OC(F)F)c3Cl)c(F)cc2C#N)cc1 [Example 61] | 
24 | logP: 4.55^a) | CC(C)Oc1ccccc1Oc1cc(-c2nn(C)c(OC(F)F)c2Cl)c(F)cc1C#N [Example 119] | 
25 | logP: 3.98^a) | COc1cccc(Oc2cc(-c3nn(C)c(OC(F)F)c3Cl)c(F)cc2C#N)c1OC [Example 124] | 
26 | logP: 4.59^a) | Cc1ccc(Cl)c(Oc2cc(-c3nn(C)c(OC(F)F)c3Cl)c(F)cc2C#N)c1 [Example 125] | 
27 | logP: 4.74^a) | Cc1ccc(Oc2cc(-c3nn(C)c(OC(F)F)c3Cl)c(F)cc2C#N)cc1C [Example 120] | 
28 | logP: 4.13^a) | Cn1nc(-c2cc(Oc3cccc(F)c3F)c(C#N)cc2F)c(Cl)c1OC(F)F [Example 117] | 
29 | logP: 4.28^a) | Cn1nc(-c2cc(Oc3ccccc3Cl)c(C#N)cc2F)c(Cl)c1OC(F)F [Example 67] | 
30 | logP: 4.02^a) | Cn1nc(-c2cc(Oc3ccccc3F)c(C#N)cc2F)c(Cl)c1OC(F)F [Example 70] | 
31 | logP: 2.03^a) | CN(C)Cc1ccccc1Oc1cc(-c2nn(C)c(OC(F)F)c2Cl)c(F)cc1C#N [Example 121] | 

From patent US6559102B1, “Substituted 3-aryl-pyrazoles” (Bayer Aktiengesellschaft, priority 1998, dated 2003)
